Here are results for 28 compounds from PubChem BioAssay (NCI).

Among the test systems are MDA-MB-435; DU-145 prostate; MDA-N; HOP-18 NSCLC; M19-MEL melanoma; DMS 273 small cell lung; LXFL 529 NSCLC; SNB-78 CNS.
Assay in all cases: DTP human tumour cell line panel, 48 h

Several values for one entry are separate records, joined by “and”; a condition that tells them apart may be missing. Identical values can stand only once.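 Exposure lasted 48 hours, with cells grown in 96-well plates and compounds tested at five concentrations. Here, GI50 denotes the concentration required for 50% inhibition of growth. TGI: concentration producing complete growth inhibition.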

As usually defined, the TGI is the concentration giving total growth inhibition. Turning to `CCCN1CCC(=O)N(CCC(F)(F)C(F)(F)C(F)(F)C(F)(F)C(F)(F)C(F)(F)F)C1=S`, the TGI in the assay on MDA-MB-435, in the assay with DU-145 prostate and in the assay with MDA-N was more than 100 µM in each case.
Regarding `CN1C(=O)c2cccc3cc([N+](=O)[O-])cc(c23)C1=O`, the TGI in the assay on MDA-MB-435, in the assay with DU-145 prostate and in the assay on MDA-N was more than 10 µM in each case.
For the compound `C1=CC2SSSC2C1` (configuration not stated), the TGI in the assay on HOP-18 NSCLC, in the assay on M19-MEL melanoma, in the assay with DMS 273 small cell lung and in the assay on LXFL 529 NSCLC was more than 100 µM in each case.
Consider `C=C1C(=O)O[C@@H]2/C=C(\C)CC/C=C(/COC(C)=O)C[C@@H](OC(C)=O)[C@@H]12`, for which the results for the TGI with MDA-MB-435, with DU-145 prostate and in the assay with MDA-N were 54.4 µM, 19.2 µM and 20.5 µM, respectively.
One may read the GI50 as the concentration that inhibits growth by half. Turning to `c1cc(CNC23CC4CC(CC(C4)C2)C3)cc(C[N+](Cc2cccc(CNC34CC5CC(CC(C5)C3)C4)c2)(Cc2cccc(CNC34CC5CC(CC(C5)C3)C4)c2)Cc2cccc(CNC34CC5CC(CC(C5)C3)C4)c2)c1` (configuration not stated), in the assay with MDA-MB-435, the GI50 is 3.45 µM and the TGI stood at 8.81 µM. Besides, in the assay with DU-145 prostate, the GI50 is 6.16 µM and the TGI is 19.3 µM.
Regarding `CN1C/C=C\CCOc2cccc(c2)-c2ccnc(n2)Nc2cccc(c2)C1`, in the assay with MDA-MB-435, the GI50 was 0.0624 µM and the TGI worked out at 0.195 µM. For the same compound, in the assay on DU-145 prostate, the GI50 is 0.0562 µM and the TGI is 6 µM.
As for `Cc1cc(C(=O)Nc2ncc(Cc3cccc(C(F)(F)F)c3)s2)c2ccccc2n1`, in the assay with DU-145 prostate, the GI50 is 3.47 µM and the TGI is more than 100 µM.
Regarding `O=C1CCN2C(=O)CCN12`, the concentration for total growth inhibition (TGI) in the assay with M19-MEL melanoma, with LXFL 529 NSCLC and in the assay with SNB-78 CNS was more than 100 µM throughout.
Turning to `NCC1Nc2ccccc2[C@@H](O)C1O` (some centres not stated), the TGI in the assay on MDA-MB-435, in the assay on DU-145 prostate and in the assay on MDA-N was more than 100 µM in each case.
On to `c1ccc(CNn2nnc3ccccc32)cc1`, for which the TGI in the assay on M19-MEL melanoma, in the assay on DMS 273 small cell lung, in the assay with LXFL 529 NSCLC and in the assay on SNB-78 CNS was more than 100 µM each time.
As to `COc1cc(/C=C/c2cc(/C=C/c3ccc(O)c(OC)c3)n(C(=O)Nc3ccc(F)c(Cl)c3)n2)ccc1O`, in the assay with MDA-MB-435, the GI50 is 0.0223 µM and the TGI was 0.102 µM. In the assay with DU-145 prostate, the GI50 is 0.419 µM and the TGI came out at 1.55 µM.
The corresponding values for `N=C1C(c2nc3ccccc3s2)=C(O)CN1c1cc(C(F)(F)F)ccc1Cl` are 4.14 µM, 36.1 µM, 25.8 µM and more than 100 µM.
In the assay on MDA-MB-435, `Clc1nc(Cl)c(Cl)c(-c2ccccc2)n1` registered a TGI of 28.7 µM.
`Cc1cn(C2CC(N(O)Cc3ccccc3)C(CO[Si](C)(C)C(C)(C)C)O2)c(=O)[nH]c1=O` (configuration not stated): the TGI with MDA-MB-435 was 33.1 µM and 31.9 µM; in the assay with DU-145 prostate it was > 100 µM and 32 µM; in the assay on MDA-N, 35.1 µM and 31.7 µM.
As for `COC(=O)C1=CNC=C(C(=O)OC)C1C1=CC(=O)C(C)=CC1=O`, in the assay with MDA-MB-435, the GI50 is 15.9 µM and the TGI amounted to 29.5 µM. Moreover, in the assay on DU-145 prostate, the GI50 was 16 µM and the TGI worked out at 30.3 µM.
The like results for `COC(=O)[C@@H](C)CNS(=O)(=O)N(c1cc(C(F)(F)F)cc(C(F)(F)F)c1)C1CCN(Cc2ccc(F)cc2)CC1` were, in that order, 10.2 µM, 24.8 µM, 13.4 µM and 27.4 µM.
The like results for `COc1ccccc1CNCCCN1C(=O)c2ccc3c4c(ccc(c24)C1=O)C(=O)N(CCCOCCCCOCCCN)C3=O` were, in that order, 0.2 µM, 0.429 µM, 1.78 µM and 3.44 µM.
As to `COC1=CC(=O)c2nc(-c3cccc(C)n3)[nH]c2C1=O`, in the assay with MDA-MB-435, the GI50 is 35.6 µM and the TGI is more than 100 µM. Also, in the assay with DU-145 prostate, the GI50 was 25.6 µM and the TGI came to 73.3 µM.
For the compound `Nn1c(=O)n(Cc2ccccc2)n(-c2ccccc2)c1=O`, the TGI with DMS 273 small cell lung, in the assay on LXFL 529 NSCLC and with SNB-78 CNS was more than 100 µM each time.
On to `NS(=O)(=O)c1ccc(N=Nc2c(O)[nH]c3ccc(-c4cnco4)cc23)cc1`, for which, in the assay with MDA-MB-435, the GI50 was more than 25 µM and the TGI is more than 25 µM. Further, in the assay with DU-145 prostate, the GI50 is 24.4 µM and the TGI is more than 25 µM.
Regarding `Cn1c2c(c3ccccc31)CC1c3c(c4ccccc4n3C)CC21` (configuration not stated), the TGI with MDA-MB-435, with DU-145 prostate and with MDA-N was more than 100 µM in each case.
With `Oc1cccnc1CN1CCCCC1`, the TGI with MDA-MB-435, in the assay with DU-145 prostate and with MDA-N was more than 100 µM each time.
Regarding `COc1cc2ncnc(Nc3ccc(C)c(O)c3)c2cc1OC`, in the assay with MDA-MB-435, the GI50 is more than 25 µM and the TGI was more than 25 µM. Also, in the assay on DU-145 prostate, the GI50 is 7.91 µM and the total growth inhibition concentration (TGI) is more than 25 µM.
In the case of `CC(C)C(Nc1c2ccccc2nc2ccccc12)C(=O)O` (configuration not stated), the TGI in the assay on M19-MEL melanoma, in the assay with DMS 273 small cell lung and in the assay with LXFL 529 NSCLC was more than 100 µM each time.
For the compound `O=C(NC1=CC(=O)c2ccccc2C1=O)c1ccccc1`, in the assay on MDA-MB-435, the GI50 is 0.94 µM and the TGI is 2.29 µM. For the same compound, in the assay with DU-145 prostate, the GI50 was 1.71 µM and the TGI is 3.46 µM.
The corresponding values for `COc1ccc(Cn2cc3c(c2-c2ccccc2)CC(C)(C)c2cnoc2-3)cc1` are 0.279 µM, 1.01 µM, 1.78 µM and 7.5 µM.
With `Cc1cc(Cl)ccc1N=C1NC(=O)C(CC(=O)Nc2ccc([N+](=O)[O-])cc2[N+](=O)[O-])S1` (configuration not stated), the TGI with M19-MEL melanoma amounted to 75.4 µM; in the assay on DMS 273 small cell lung it was 82.7 µM; in the assay on LXFL 529 NSCLC, 47.5 µM; with SNB-78 CNS it was 73.6 µM.
Take `COc1nc2ccccc2cc1-c1nc2c(cnn2-c2ccc(Br)cc2)c(=O)[nH]1`: in the assay with MDA-MB-435, the GI50 is 0.00957 µM and the TGI was 0.024 µM. Moreover, in the assay with DU-145 prostate, the GI50 was 0.0344 µM and the TGI is 13.8 µM.
